System: A498 complex spheroids with HUVEC/MSC, growth
Assay: Anticancer human tumor A498 cell line growth inhibition [AhR];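 also: seven day exposure starting three days after spheroid seeding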;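 as to viability, T/C: luminescence signal used as a surrogate for viable cells; luminescence viability scaled so 100% equals DMSO vehicle wells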
Conditions: for IC50: curve of first compound; for viability, T/C: stronger effect = lower value
From the text: Multicellular complex tumor spheroid response to aryl hydrocarbon receptor antagonists in combination with a variety of drugs and investigational agents in selected tumor cell lines
The current study was undertaken to assess response to aryl hydrocarbon receptor antagonists in combination with standard-of-care drugs and investigational agents in solid tumor complex spheroid models. Complex spheroids include a stromal component modeled by human endothelial cells (HUVEC) and fibroblasts modeled by human mesenchymal stem cells (MSCs). The concentration ranges selected for each drug and investigational agent were based upon clinically achievable concentrations if the clinical Cmax of the agent was known.
Compounds. The drugs and investigational agents: BAY 2416964 (NSC825713), GNF351 (NSC835774), CH-223191 (NSC835775), CPI-455 (NSC825282), aza-TdCyd (NSC777586), decitabine (NSC127716), belinostat (NSC758774), entinostat (NSC756642), pevonedistat (NSC761192), tazemetostat (NSC777109), talazoparib (NSC765396), olaparib (NSC753686), selinexor (NSC780203), nedisertib (M3814, NSC802822), bortezomib (NSC756655), venetoclax (NSC766270), doxorubicin (NSC123127), elimusertib (BAY189344, NSC800525), ceralasertib (AZD6738, NSC777638), TAK-243 (NSC785004), alisertib (NSC759677), etoposide (NSC141540), topotecan (NSC609699), eribulin (NSC707389), gemcitabine (NSC613327), carboplatin (NSC241240), cisplatin (NSC119875), and SN-38 (NSC673596) were obtained from the National Cancer Institute (NCI) Developmental Therapeutics Program Chemical Repository (32). The FDA-approved anticancer drug set is available from the Developmental Therapeutics Program at https://dtp.cancer.gov/organization/dscb/obtaining/available plates.htm. […] The stock solutions were prepared in dimethyl sulfoxide (DMSO, Sigma-Aldrich, St. Louis, MO, cat. D2650), except for the platinum compounds which were prepared in saline (Quality Biological, Gaithersburg, MD, cat. 114-055-101), at 800-fold the tested concentration and stored at -70 degrees C prior to their use. All drugs and investigational agents were tested over a range starting from a high concentration at or near the clinical Cmax and decreasing in half-log increments. If the clinical Cmax for an agent had not been determined, the highest concentration tested was 10 microM (Table 1).
Cell Culture. All cells were maintained in an incubator at 37 degrees C and 5% CO2 with 95% humidity. The PDC lines were cultured according to standard operating procedures established by the NCI PDMR (https://pdmr.cancer.gov). Briefly, all PDCs were thawed and cultured in Matrigel-coated flasks prepared with a working solution of 1X Ham's F-12 nutrient mix, without supplementation (Invitrogen, Waltham, MA, cat. 11765054), 100 U/mL penicillin-streptomycin (Invitrogen, cat. 15140122), and 2.5% Matrigel (Corning Inc., Corning, NY, cat. 354248) for the first three passages. All PDCs were cultured in complete DMEM/F-12 media containing advanced DMEM/F-12 (Invitrogen, cat. 12634028), 4.9% defined fetal bovine serum, heat inactivated (HyClone Laboratories Inc., Logan, UT, cat. SH30070.03HI), 389 ng/mL hydrocortisone (Sigma-Aldrich, cat. H4001), 9.7 ng/mL human EGF recombinant protein (Invitrogen, cat. PHG0313), 23.4 microg/mL adenine (Sigma-Aldrich, cat. A2786), 97.3 U/mL penicillin-streptomycin (Invitrogen, cat. 15140122), 1.9 mM L-glutamine (Invitrogen, cat. 25030081), and 9.7 microM Y-27632 dihydrochloride (Tocris Bioscience, Bristol, United Kingdom, cat. 1254). The PDCs were cultured in complete DMEM/F12 media without 10 microM Y-27632 dihydrochloride for at least two passages prior to the screen. The established cell lines NCI-H1341 and […] were cultured in DMEM/F-12, HEPES (Invitrogen, cat. 11330032), 5% defined fetal bovine serum (HyClone Laboratories Inc., cat. SH30070.03), ITS premix universal culture supplement [insulin (5 microg/mL), transferrin (5 microg/mL), and selenious acid (5 ng/mL)] […]

[1] = second compound 0.1 µM, first compound 0.0316 µM
[2] = second compound 0.1 µM, first compound 0.1 µM
[3] = second compound 0.1 µM, first compound 0.316 µM
[4] = second compound 0.1 µM, first compound 1 µM
[5] = second compound 0.1 µM, first compound 3.16 µM
[6] = second compound 0.1 µM, first compound 10 µM
[7] = second compound 0.316 µM, first compound 0.0316 µM
[8] = second compound 0.316 µM, first compound 0.1 µM
[9] = second compound 0.316 µM, first compound 0.316 µM
[10] = second compound 0.316 µM, first compound 1 µM
[11] = second compound 0.316 µM, first compound 3.16 µM
[12] = second compound 0.316 µM, first compound 10 µM
[13] = second compound 1 µM, first compound 0.0316 µM
[14] = second compound 1 µM, first compound 0.1 µM
[15] = second compound 1 µM, first compound 0.316 µM
[16] = second compound 1 µM, first compound 1 µM
[17] = second compound 1 µM, first compound 3.16 µM
[18] = second compound 1 µM, first compound 10 µM
[19] = second compound 3.16 µM, first compound 0.0316 µM
[20] = second compound 3.16 µM, first compound 0.1 µM
[21] = second compound 3.16 µM, first compound 0.316 µM
[22] = second compound 3.16 µM, first compound 1 µM
[23] = second compound 3.16 µM, first compound 3.16 µM
[24] = second compound 3.16 µM, first compound 10 µM
[25] = second compound 10 µM, first compound 0.0316 µM
[26] = second compound 10 µM, first compound 0.1 µM
[27] = second compound 10 µM, first compound 0.316 µM
[28] = second compound 10 µM, first compound 1 µM
[29] = second compound 10 µM, first compound 3.16 µM
[30] = second compound 10 µM, first compound 10 µM

## CC1(C)CCC(CN2CCN(c3ccc(C(=O)NS(=O)(=O)c4ccc(NCC5CCOCC5)c([N+](=O)[O-])c4)c(Oc4cnc5[nH]ccc5c4)c3)CC2)=C(c2ccc(Cl)cc2)C1 + CC(CO)NC(=O)c1cc(-c2ccc(Cl)cc2)nn(-c2cnn(C)c2)c1=O
Second compound 0.1 µM
  IC50: 5.41 µM
Second compound 0.316 µM
  IC50: 5.05 µM
Second compound 1 µM
  IC50: 4.9 µM
Second compound 3.16 µM
  IC50: 3.97 µM
Second compound 10 µM
  IC50: 3.8 µM
[1]
  viability, T/C: 98.3%
[2]
  viability, T/C: 98%
[3]
  viability, T/C: 94.3%
[4]
  viability, T/C: 86.4%
[5]
  viability, T/C: 75.1%
[6]
  viability, T/C: 23.6%
[7]
  viability, T/C: 91.1%
[8]
  viability, T/C: 92.3%
[9]
  viability, T/C: 85.7%
[10]
  viability, T/C: 84.7%
[11]
  viability, T/C: 69.7%
[12]
  viability, T/C: 21.6%
[13]
  viability, T/C: 82.5%
[14]
  viability, T/C: 85.1%
[15]
  viability, T/C: 86.4%
[16]
  viability, T/C: 79.5%
[17]
  viability, T/C: 68.8%
[18]
  viability, T/C: 20.3%
[19]
  viability, T/C: 77.5%
[20]
  viability, T/C: 79.4%
[21]
  viability, T/C: 79.4%
[22]
  viability, T/C: 63.3%
[23]
  viability, T/C: 61.2%
[24]
  viability, T/C: 20.6%
[25]
  viability, T/C: 64.3%
[26]
  viability, T/C: 69.5%
[27]
  viability, T/C: 66.1%
[28]
  viability, T/C: 59.4%
[29]
  viability, T/C: 56.8%
[30]
  viability, T/C: 22.4%

## O=C(c1cc(Cc2n[nH]c(=O)c3ccccc23)ccc1F)N1CCN(C(=O)C2CC2)CC1 + Cc1ccccc1N=Nc1ccc(NC(=O)c2ccnn2C)c(C)c1
Second compound 0.1 µM
  IC50: > 10 µM
Second compound 0.316 µM
  IC50: > 10 µM
Second compound 1 µM
  IC50: > 10 µM
Second compound 3.16 µM
  IC50: > 10 µM
Second compound 10 µM
  IC50: > 10 µM
[1]
  viability, T/C: 90.1%
[2]
  viability, T/C: 95.2%
[3]
  viability, T/C: 90.2%
[4]
  viability, T/C: 91.9%
[5]
  viability, T/C: 92.6%
[6]
  viability, T/C: 83.5%
[7]
  viability, T/C: 96.3%
[8]
  viability, T/C: 95.9%
[9]
  viability, T/C: 95.2%
[10]
  viability, T/C: 95.1%
[11]
  viability, T/C: 88.9%
[12]
  viability, T/C: 90.4%
[13]
  viability, T/C: 84.6%
[14]
  viability, T/C: 95.7%
[15]
  viability, T/C: 91.5%
[16]
  viability, T/C: 81%
[17]
  viability, T/C: 85.7%
[18]
  viability, T/C: 75.9%
[19]
  viability, T/C: 79.5%
[20]
  viability, T/C: 92.7%
[21]
  viability, T/C: 87.6%
[22]
  viability, T/C: 85.5%
[23]
  viability, T/C: 76.6%
[24]
  viability, T/C: 75.8%
[25]
  viability, T/C: 87.3%
[26]
  viability, T/C: 83.4%
[27]
  viability, T/C: 80.3%
[28]
  viability, T/C: 86.5%
[29]
  viability, T/C: 75.9%
[30]
  viability, T/C: 70.6%

## CCc1c2c(nc3ccc(O)cc13)-c1cc3c(c(=O)n1C2)COC(=O)[C@]3(O)CC + Cc1ccccc1N=Nc1ccc(NC(=O)c2ccnn2C)c(C)c1
Second compound 0.1 µM
  IC50: 0.0576 µM
Second compound 0.316 µM
  IC50: 0.0711 µM
Second compound 1 µM
  IC50: 0.0521 µM
Second compound 3.16 µM
  IC50: 0.0442 µM
Second compound 10 µM
  IC50: 0.0604 µM
Second compound 0.1 µM, first compound 0.000949 µM
  viability, T/C: 89.2%
Second compound 0.1 µM, first compound 0.003 µM
  viability, T/C: 78.2%
Second compound 0.1 µM, first compound 0.00949 µM
  viability, T/C: 72.8%
Second compound 0.1 µM, first compound 0.03 µM
  viability, T/C: 55.9%
Second compound 0.1 µM, first compound 0.0949 µM
  viability, T/C: 44.1%
Second compound 0.1 µM, first compound 0.3 µM
  viability, T/C: 38.8%
Second compound 0.316 µM, first compound 0.000949 µM
  viability, T/C: 84.9%
Second compound 0.316 µM, first compound 0.003 µM
  viability, T/C: 83.5%
Second compound 0.316 µM, first compound 0.00949 µM
  viability, T/C: 80.3%
Second compound 0.316 µM, first compound 0.03 µM
  viability, T/C: 61.6%
Second compound 0.316 µM, first compound 0.0949 µM
  viability, T/C: 45.4%
Second compound 0.316 µM, first compound 0.3 µM
  viability, T/C: 45%
Second compound 1 µM, first compound 0.000949 µM
  viability, T/C: 83.1%
Second compound 1 µM, first compound 0.003 µM
  viability, T/C: 85.9%
Second compound 1 µM, first compound 0.00949 µM
  viability, T/C: 78%
Second compound 1 µM, first compound 0.03 µM
  viability, T/C: 58.2%
Second compound 1 µM, first compound 0.0949 µM
  viability, T/C: 38.8%
Second compound 1 µM, first compound 0.3 µM
  viability, T/C: 43.6%
Second compound 3.16 µM, first compound 0.000949 µM
  viability, T/C: 86.9%
Second compound 3.16 µM, first compound 0.003 µM
  viability, T/C: 78.7%
Second compound 3.16 µM, first compound 0.00949 µM
  viability, T/C: 76.2%
Second compound 3.16 µM, first compound 0.03 µM
  viability, T/C: 54.5%
Second compound 3.16 µM, first compound 0.0949 µM
  viability, T/C: 40%
Second compound 3.16 µM, first compound 0.3 µM
  viability, T/C: 34.8%
Second compound 10 µM, first compound 0.000949 µM
  viability, T/C: 84.3%
Second compound 10 µM, first compound 0.003 µM
  viability, T/C: 79.5%
Second compound 10 µM, first compound 0.00949 µM
  viability, T/C: 77.8%
Second compound 10 µM, first compound 0.03 µM
  viability, T/C: 62.2%
Second compound 10 µM, first compound 0.0949 µM
  viability, T/C: 41.4%
Second compound 10 µM, first compound 0.3 µM
  viability, T/C: 39.4%
